Columns and labels:
Format in all cases: cell-based
[1] = biological target: T1, EGFR L858R (BaF3-L858R cells) (Homo sapiens, UniProt P00533, L858R); assay: Cell degradation of EGFR, HTRF assay, BaF3-L858R cells; conditions: 16 h treatment; for DC50: EGFR degradation; for Dmax: maximum percentage of degradation
T1 construct: host or cells: BaF3
How it was run: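 EGFR L858R levels measured by HTRF antibody pair in lysed BaF3-L858R cells after 16 h compound exposure (8-point 5-fold series from 10 uM final, 37° C). Degradation is relative to DMSO-only cells; DC50 fitted with Hill equation, Dmax taken as the largest percent loss.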

[2] = biological target: T2, p-EGFR L858R (BaF3-L858R cells) (Homo sapiens, UniProt P00533, L858R); assay: Cell p-EGFR inhibition assay, HTRF, BaF3-L858R cells; conditions: 16 h treatment; for Imax (%): maximum percentage of pEGFR inhibition; for IC50: pEGFR inhibition
T2 construct: host or cells: BaF3
How it was run: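 BaF3-L858R cells treated 16 h at 37 °C, 5% CO2 with compound from 10 uM top, 5-fold dilutions, 8 doses, in 0.1% DMSO medium. Lysates read overnight by HTRF p-EGFR antibodies; IC50 fitted to four-parameter curve against DMSO high control.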

[3] = biological target: p-EGFR Del19/C797S (H1975-clone #23 cells) (Homo sapiens, UniProt P00533); assay: Cell p-EGFR inhibition assay, HTRF, H1975-clone#23 (DEL19/C797S) cells; conditions: 16 h treatment; for Imax (%): maximum percentage of pEGFR inhibition; for IC50: pEGFR inhibition
How it was run: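 Phospho-EGFR read by overnight HTRF on lysates, normalized to DMSO-treated high control; IC50, Hill slope and Imax fitted. Compounds were applied for 16 h (10 uM top, 5-fold steps, 8 doses) to an H1975 single clone carrying only exogenous Del19/C797S EGFR after sgRNA knockout of endogenous copies.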

[4] = biological target: T3, EGFR-L858R/C797S (H1975-clone #8 cells) (Homo sapiens, UniProt P00533, C797S/L858R); assay: Cell degradation of EGFR, HTRF assay, H1975-clone#8 (L858R/C797S) cells; conditions: 16 h treatment; for DC50: EGFR degradation; for Dmax: maximum percentage of degradation
T3 construct: expressed in transfected cells; host or cells: H1975 (endogenous EGFR knocked out, clone #8)

SMILES | DC50 [1] | Dmax [1] | Imax (%) [2] | IC50 [2] | Imax (%) [3] | IC50 [3] | DC50 [4] | Dmax [4]
Cc1cc2cc(n1)-c1c(C(F)F)nn(C)c1OC[C@H]1CCC(C1)CN1/C(=N/C2=O)Nc2ccc(N3CCN(C4CCN(c5c(F)cc(NC6CCC(=O)NC6=O)cc5F)CC4)CC3)cc21 (some centres unmarked) [Example 99, 3-((4-(4-(4-((7^1R,7^3S,E)-1^3-(difluoromethyl)-1^1,2^6-dimethyl-3-oxo-5^2,5^3-dihydro-1^1H,5^1H-9-oxa-4-aza-5(2,1)-benzo[d]imidazola-2(2,4)-pyridina-1(4,5)-pyrazola-7(1,3)-cyclopentanacyclononaphane-5^6-yl)piperazin-1-yl)piperidin-1-yl)-3,5-difluorophenyl)amino)piperidine-2,6-dione] | 1.06 nM | 82.3% | 100.3% | 8 nM | 99.2% | 2.2 nM | 6 nM | 85.6%
Cc1cc2cc(n1)-c1cnn(C)c1OC[C@H]1CCC(C1)CN1/C(=N/C2=O)Nc2cc(F)c(N3CCN(C4CCN(c5cnc(C6CCC(=O)NC6=O)cc5C)CC4)CC3)cc21 (some centres unmarked) [Example 100, 3-(5-(4-(4-((7^1R,7^3S,E)-5^5-fluoro-1^1,2^6-dimethyl-3-oxo-5^2,5^3-dihydro-1^1H,5^1H-9-oxa-4-aza-5(2,1)-benzo[d]imidazola-2(2,4)-pyridina-1(4,5)-pyrazola-7(1,3)-cyclopentanacyclononaphane-5^6-yl)piperazin-1-yl)piperidin-1-yl)-4-methylpyridin-2-yl)piperidine-2,6-dione] | 3.34 nM | 72.3% | 107.3% | 6.7 nM | 101% | 0.5 nM | 3.07 nM | 87.3%
Cc1cc2cc(n1)-c1c(C)nn(C)c1OC[C@H]1CC[C@H](C1)CN1/C(=N/C2=O)Nc2ccc(N3CCN([C@H]4CCN(c5cnc(C6CCC(=O)NC6=O)cc5C)CC4(F)F)CC3)cc21 (stereo partly drawn) [Example 101, 3-(5-((S)-3,3-difluoro-4-(4-((7^1R,7^3S,E)-1^1,1^3,2^6-trimethyl-3-oxo-5^2,5^3-dihydro-1^1H,5^1H-9-oxa-4-aza-5(2,1)-benzo[d]imidazola-2(2,4)-pyridina-1(4,5)-pyrazola-7(1,3)-cyclopentanacyclononaphane-5^6-yl)piperazin-1-yl)piperidin-1-yl)-4-methylpyridin-2-yl)piperidine-2,6-dione] | 2.22 nM | 81.8% | 106.4% | 3.5 nM | 101% | 1 nM | 1.58 nM | 90.2%
Cc1cc2cc(n1)-c1cnn(C)c1OC[C@H]1CCC(C1)CN1/C(=N/C2=O)Nc2cc(C)c(N3CCN([C@@H]4CCN(c5ccc(C6CCC(=O)NC6=O)nc5C)C[C@@H]4F)CC3)cc21 (stereo partly drawn) [Example 102, 3-(5-((3S,4R)-3-fluoro-4-(4-((7^1R,7^3S,E)-1^1,2^6,5^5-trimethyl-3-oxo-5^2,5^3-dihydro-1^1H,5^1H-9-oxa-4-aza-5(2,1)-benzo[d]imidazola-2(2,4)-pyridina-1(4,5)-pyrazola-7(1,3)-cyclopentanacyclononaphane-5^6-yl)piperazin-1-yl)piperidin-1-yl)-6-methylpyridin-2-yl)piperidine-2,6-dione] | 0.59 nM | 85.8% | 95% | 1.5 nM | 100.5% | 0.6 nM | 0.76 nM | 91.5%
Cc1cc2cc(n1)-c1cnn(C)c1OC[C@H]1CCC(C1)CN1/C(=N/C2=O)Nc2ccc(N3CCN(C4CCN(c5ccc(NC6CCC(=O)NC6=O)cc5Cl)CC4)CC3)cc21 (some centres unmarked) [Example 103, 3-((3-chloro-4-(4-(4-((7^1R,7^3S,E)-1^1,2^6-dimethyl-3-oxo-5^2,5^3-dihydro-1^1H,5^1H-9-oxa-4-aza-5(2,1)-benzo[d]imidazola-2(2,4)-pyridina-1(4,5)-pyrazola-7(1,3)-cyclopentanacyclononaphane-5^6-yl)piperazin-1-yl)piperidin-1-yl)phenyl)amino)piperidine-2,6-dione] | 3.38 nM | 81.6% | 95.6% | 16.3 nM | 102% | 0.8 nM | 2.53 nM | 83.3%
COC[C@H]1CN(c2ccc3c(c2)N2CC4CC[C@H](COc5c(c(C(F)F)nn5C)-c5cc(cc(C)n5)C(=O)/N=C/2N3)C4)CCN1C1CCN(c2cc(F)c([C@H]3CCC(=O)NC3=O)c(F)c2)CC1 [Example 104, (R)-3-(4-(4-((R)-4-((7^1R,7^3S,E)-1^3-(difluoromethyl)-1^1,2^6-dimethyl-3-oxo-5^2,5^3-dihydro-1^1H,5^1H-9-oxa-4-aza-5(2,1)-benzo[d]imidazola-2(2,4)-pyridina-1(4,5)-pyrazola-7(1,3)-cyclopentanacyclononaphane-5^6-yl)-2-(methoxymethyl)piperazin-1-yl)piperidin-1-yl)-2,6-difluorophenyl)piperidine-2,6-dione] | 4.1 nM | 83.2% | 95% | 4.4 nM | 100.5% | 2 nM | 3.7 nM | 86.9%
Cc1cc2cc(n1)-c1cnn(C)c1OC[C@H]1CCC(C1)CN1/C(=N/C2=O)Nc2ccc(N3CCN([C@@H]4CCN(c5ccc(C6CCC(=O)NC6=O)nc5C)CC4(F)F)CC3)cc21 (stereo partly drawn) [Example 105, 3-(5-((R)-4-(4-((7^1R,7^3S,E)-1^1,2^6-dimethyl-3-oxo-5^2,5^3-dihydro-1^1H,5^1H-9-oxa-4-aza-5(2,1)-benzo[d]imidazola-2(2,4)-pyridina-1(4,5)-pyrazola-7(1,3)-cyclopentanacyclononaphane-5^6-yl)piperazin-1-yl)-3,3-difluoropiperidin-1-yl)-6-methylpyridin-2-yl)piperidine-2,6-dione] | 3.68 nM | 82.7% | 93.9% | 10.1 nM | 100.1% | 0.7 nM | 4.09 nM | 85.2%
COCC1(N2CCN(c3ccc4c(c3)N3CC5CC[C@H](COc6c(cnn6C)-c6cc(cc(C)n6)C(=O)/N=C/3N4)C5)CC2)CCN(c2ccc(C3CCC(=O)NC3=O)nc2C)CC1 (some centres unmarked) [Example 106, 3-(5-(4-(4-((7^1R,7^3S,E)-1^1,2^6-dimethyl-3-oxo-5^2,5^3-dihydro-1^1H,5^1H-9-oxa-4-aza-5(2,1)-benzo[d]imidazola-2(2,4)-pyridina-1(4,5)-pyrazola-7(1,3)-cyclopentanacyclononaphane-5^6-yl)piperazin-1-yl)-4-(methoxymethyl)piperidin-1-yl)-6-methylpyridin-2-yl)piperidine-2,6-dione] | 6.69 nM | 82.5% | 97.6% | 16 nM | 99.8% | 0.8 nM | 2.45 nM | 83.3%
COC[C@@H]1CN(c2ccc3c(c2)N2CC4CC[C@H](COc5c(cnn5C)-c5cc(cc(C)n5)C(=O)/N=C/2N3)C4)CCN1C1CN(C2CCN(c3cc(F)c([C@H]4CCC(=O)NC4=O)c(F)c3)CC2)C1 [Example 108, (R)-3-(4-(4-(3-((S)-4-((7^1R,7^3S,E)-1^1,2^6-dimethyl-3-oxo-5^2,5^3-dihydro-1^1H,5^1H-9-oxa-4-aza-5(2,1)-benzo[d]imidazola-2(2,4)-pyridina-1(4,5)-pyrazola-7(1,3)-cyclopentanacyclononaphane-5^6-yl)-2-(methoxymethyl)piperazin-1-yl)azetidin-1-yl)piperidin-1-yl)-2,6-difluorophenyl)piperidine-2,6-dione] | 3.32 nM | 87.3% | 95.9% | 7.7 nM | 100.3% | 0.6 nM | 0.75 nM | 77%
Cc1cc2cc(n1)-c1cnn(C)c1OC[C@H]1CCC(C1)CN1/C(=N/C2=O)Nc2ccc(N3CCN(C4CCN(c5c(F)cc(OC6CCC(=O)NC6=O)cc5F)CC4)CC3)cc21 (some centres unmarked) [Example 111, 3-(4-(4-(4-((7^1R,7^3S,E)-1^1,2^6-dimethyl-3-oxo-5^2,5^3-dihydro-1^1H,5^1H-9-oxa-4-aza-5(2,1)-benzo[d]imidazola-2(2,4)-pyridina-1(4,5)-pyrazola-7(1,3)-cyclopentanacyclononaphane-5^6-1)piperazin-1-yl)piperidin-1-yl)-3,5-difluorophenoxy)piperidine-2,6-dione] | 3.18 nM | 80.7% | 97.6% | 16.1 nM | 100.1% | 1 nM | 1.92 nM | 85.7%

Source: US20240425523A1, “Compounds for the Degradation of EGFR Kinase” (Beigene Switzerland GMBH, priority 2023, published 2024)
